Laboratory results from US8404696B2, “Quinazoline-2,4-dione derivative, and medical compositions for the prophylaxis and treatment of cranial nerve disease containing the same” (Shin Poong Pharmaceutical Co., Ltd., priority 2008, dated 2013).

Assays:
[1] = test system: pentylentetrazole (PTZ)-induced convulsion; test: Anti-convulsant effect, pentylentetrazole (PTZ) test; format: in vivo; details: 10 mg/kg intraperitoneally, PTZ 80 mg/kg subcutaneously; for mortality rate / Induction percentage of convulsion: (animals/total); for mortality rate: negative control 70(17/23); for Induction percentage of convulsion: negative control 100(23/23); for Initiation time of convulsion: negative control 5.0 ± 0.7; for Duration of convulsion: negative control 46.7 ± 3.3
Method: An experiment was performed by the method of Ali et al. (Ali, A. et al. 2006, Pharmacological Reports, 58: 242-245). A 10 mg/kg dose of compound was intraperitoneally administered to identify the anti-convulsant effect and the effect was observed (Table 8). Researching the process of activity was performed by the Anti-epileptic Drug Development Program (ADD) of NIH during development of the anti-convulsant drug. One of the assessed items of anti-convulsant activity in the first step of this program is the pentylentetrazole (PTZ) test. […] After 10 mg/kg of the testing drug was administered, assessment was performed by estimating the initiation time of convulsion, duration until convulsion completely disappeared and mortality rate. It was assessed as having an anti-convulsant effect when a single episode of clonic spasm was not shown over 5 seconds on at least one of the 4 laboratory animals after PTZ administration.

[2] = test system: mixed culture of nerve cells-glial cells; test: Protecting effect on NMDA-induced nerve cell death (LDH release); format: cell-based, ICR mouse; details: 100 μM NMDA, LDH release after 24 hours
Method: Isolation and culture of nerve cells were performed by Choi's method (Choi, D. W. 1985, Neurosci. Lett., 58: 293-297). That is, the cortex was isolated in fetus ICR mouse that was 14 days pregnant, and then single cells were obtained from the tissue using pipette. The cells were aliquoted into 2×10^5/well density in a 24-well plate (Falcon) in which glial cells of cerebral cortex had been cultured in an incubator maintained at 37° C. with 5% CO2 for over 3 weeks. The culture medium was supplemented with MEM (minimum essential medium, Sigma), 2 mM glutamine, 21 mM glucose, 26.5 mM bicarbonate, 10% fetal bovine serum (FBS). In 3-5 days after aliquot, 10 μM Ara-C (cytosine arabinoside) was treated to suppress proliferation of neuroglia. And it was treated with 100 μM NMDA and 1 μg/mL or 2 μg/mL of each sample (compound) to induce the death of nerve cells due to excitable toxicity for 20 minutes, in 12-15 days after aliquot. Because of nerve cell death, lactate dehydrogenase (LDH) accumulated in proportion to the number of dead cells. In 24 hours after drug treatment, the amount of dehydrogenase (LDH) released to outside of cells was measured by using an […] measurement kit (CytoTox 96, Promega). After the reaction was completed, the change of absorbance depending on the amount of LDH was measured by using a microplate spectrophotometer.

thoracic aorta of rats = test: Relaxing effect on thoracic aorta contracted by phenylephrine (organ bath); design: species or system rats of SD species; details: 67 μg/mL, phenylephrine 0.5 μM, mean n = 3; for inhibition at 67 µg/mL: Rattus norvegicus, read-out: Relaxation percentage
Excerpt: After male rats of SD species (250-300 g) were anesthetized by inhalation of ether, their thoracic aortas were extracted and put into a Krebs buffer (mM; NaCl 118, NaHCO3 27.3, KCl 4.8, MgSO4 1.2, KH2PO4 1.0, CaCl2 1.25, glucose 11.1). 2 mm of aortic ring was made under dissecting microscope and cultured in an organ bath to measure the tension of blood vessels. The organ bath was filled with Krebs buffer and saturated with 95% O2, 5% CO2 to maintain dissolved oxygen and physiological pH. Changing of tension was measured by a tension meter (Hugo-sachs, model K30) and recorded by physiological recorder (Coulbourn polygraph). The length of the blood vessels was increased step by step to make 1.0 g of basal tension for 90 minutes. The equilibrated blood vessel was contracted by phenylephrine (0.5 μM). When the contraction furrow reached equilibrium, compounds were added, followed by observation of relaxation response.

[3] = test system: middle cerebral artery occlusion (MCAO) model; test: Anti-stroke effect in MCAO model, intravenous administration around reperfusion; format: in vivo, rats of SD species; details: for Inhibitory percentage compared to negative control / Infarcted volume (Mean ± standard deviation): 1 mg/kg iv; for Infarcted volume (Mean ± standard deviation): negative control 0.43 ± 0.02
Method: Male rats of SD species with 290-300 g of body weight were used as laboratory animals, and 8 rats were used in each experiment group. The operation was performed by using the method of Nagasawa et al. (Nagasawa, H. and Gogure, K. 1989, Stroke, 20: 1037-1043).
The rats were anesthetized by Ketamine, and the operation was performed as body temperature was maintained using thermoplate. The cerebral region was incised following the median line of the neck, and the left common carotid artery, internal carotid artery and external carotid artery were separated, taking care not to damage the vagus nerve. The common carotid artery and external carotid artery were ligatured, and a probe was inserted into the internal carotid artery from the branch point of the internal and external carotid arteries. And then the fundus of the middle cerebral artery was occluded by ligature just on the upper side of the insertion region. A probe was made by heating the end of a 4-0 nylon surgical suture (Dafilon, B. Braun, Germany) and cut into 30 mm. The 7-9 mm end of the probe was coated with the mixture of silcon (Xantopren VL plus, Heraeus Kulzer, Germany) and curing agent (Optosyl-Xantopren VL plus, Heraeus Kulzer, Germany), and the thickness was to be 0.3-0.4 mm. After the intervention of the probe insertion and the animals came out of the anesthetic, individuals in which neurological deficit symptom (right direction circling) was observed were included in the ischemia group.
After 3 hours of ischemia, the inserted probe was removed to reperfuse blood circulation. The brain was extracted after 24 hours, followed by histological staining.
The compound 3 was administered at a programmed time before or after insertion of the probe with oral or intravenous administration. TTC (2,3,5-triphenyltetrazolium chloride) staining was performed to estimate the damage of brain tissue by ischemia. Procephalon of the extracted brain was sliced into 2 mm of sequential slice by using brain matrix (ASI instrument, Warren, Mich., USA). The slices were put into 2% of TTC solution and incubated at 37° C. for 60 minutes for staining. The TTC stained brain slice was fixed in 10% of formalin buffer and the front of the each slice was photographed with a digital camera. The infarcted areas (cm^2) that were not stained with deep red in each acquired image were measured using an image analyzer, and total infarcted volume (cm^3) was calculated by multiplying the thickness of the slices
In the experiment, the probe was removed after stoke induction so that circulation was reperfused.

[4] = treatment time 0.5 after reperfusion
[5] = treatment time 1 after reperfusion
[6] = treatment time 2 after reperfusion
[7] = treatment time 4 after reperfusion
[8] = treatment time 6 after reperfusion
[9] = treatment time 12 after reperfusion
[10] = treatment time 18 after reperfusion
[11] = treatment time 24 after reperfusion
[12] = treatment time −0.5 after reperfusion

Row | Compound | mortality rate [1] | Induction percentage of convulsion [1] | Initiation time of convulsion [1] [min] | Duration of convulsion [1] [min] | Inhibitory effect of cell death by NMDA-induced excitable neurotoxicity ([2]; 1 μg/ml compound) [%] | Inhibitory effect of cell death by NMDA-induced excitable neurotoxicity ([2]; 2 μg/ml compound) [%] | inhibition at 67 µg/mL (thoracic aorta of rats) [%] | also measured
1 | O=C(c1ccccc1)N(CCCCNCCCn1c(=O)[nH]c2ccccc2c1=O)CCCn1c(=O)[nH]c2ccccc2c1=O [Compound 10, N-[3-(2,4-dioxo-1,4-dihydro-2H-quinazolin-3-yl)propyl]-N-{4-[3-(2,4-dioxo-1,4-dihydro-2H-quinazolin-3-yl)propylamino]butyl}benzamide] | 17(1/6) % | 100(6/6) % | 5.8 ± 1.4 | 49.9 ± 5.4 | 15.4 | 13.7 | 4.9 | –
2 | CC(=O)N(CCCCNCCCn1c(=O)[nH]c2ccccc2c1=O)CCCNC(=O)c1ccc(O)cc1 [Compound 19, N-[3-(acetyl-{4-[3-(2,4-dioxo-1,4-dihydro-2H-quinazolin-3-yl)propylamino]butyl}amino)propyl]-4-hydroxybenzamide] | 0(0/6) % | 50(3/6) % | 38.7 ± 1.5 | 1.8 ± 2.7 | 40.1 | 45.2 | 11.8 | –
3 | C[C@]12N[C@H](Cc3ccccc31)c1ccccc12 [MK-801] | – | – | – | – | 49.0 | 63.6 | – | Inhibitory percentage compared to negative control [3, 4]: 50.2%; Infarcted volume (Mean ± standard deviation) [3, 4]: 0.21 ± 0.04 cm^3; Inhibitory percentage compared to negative control [3, 5]: 27.0%; Infarcted volume (Mean ± standard deviation) [3, 5]: 0.31 ± 0.02 cm^3; Inhibitory percentage compared to negative control [3, 6]: 22.8%; Infarcted volume (Mean ± standard deviation) [3, 6]: 0.33 ± 0.02 cm^3; Inhibitory percentage compared to negative control [3, 7]: 34.4%; Infarcted volume (Mean ± standard deviation) [3, 7]: 0.28 ± 0.08 cm^3; Inhibitory percentage compared to negative control [3, 8]: 13.3%; Infarcted volume (Mean ± standard deviation) [3, 8]: 0.37 ± 0.06 cm^3; Inhibitory percentage compared to negative control [3, 9]: 8.7%; Infarcted volume (Mean ± standard deviation) [3, 9]: 0.39 ± 0.06 cm^3; Inhibitory percentage compared to negative control [3, 10]: 7.4%; Infarcted volume (Mean ± standard deviation) [3, 10]: 0.40 ± 0.08 cm^3; Inhibitory percentage compared to negative control [3, 11]: 8.8%; Infarcted volume (Mean ± standard deviation) [3, 11]: 0.39 ± 0.05 cm^3; Inhibitory percentage compared to negative control [3, 12]: 55.4%; Infarcted volume (Mean ± standard deviation) [3, 12]: 0.19 ± 0.06 cm^3; Treatment time after reperfusion giving the maximum effect ([3]; positive control, iv): 30 min
4 | CS(=O)(=O)N(CCCCN(CCCn1c(=O)[nH]c2ccccc2c1=O)S(C)(=O)=O)CCCn1c(=O)[nH]c2ccccc2c1=O [Compound 18, N-[3-(2,4-dioxo-1,4-dihydro-2H-quinazolin-3-yl)propyl]-N-(4-{[3-(2,4-dioxo-1,4-dihydro-2H-quinazolin-3-yl)propyl]methansulfonylamino}butyl)methansulfonamide] | 0(0/6) % | 83(5/6) % | 19.1 ± 8.4 | 5.2 ± 3.4 | 44.4 | 21.0 | 42.4 | –
5 | CC(=O)N(CCCCNCCCNC(=O)c1ccc(O)cc1)CCCn1c(=O)[nH]c2ccccc2c1=O [Compound 20, N-[3-(4-{acetyl-[3-(2,4-dioxo-1,4-dihydro-2H-quinazolin-3-yl)propyl]amino}butylamino)propyl]-4-hydroxybenzamide] | 0(0/6) % | 50(3/6) % | 44.7 ± 11.0 | 0.9 ± 1.9 | 36.4 | 42.5 | 15.2 | –
6 | O=c1[nH]c2ccccc2c(=O)n1CCCNCCCCN(CCCn1c(=O)[nH]c2ccccc2c1=O)Cc1ccccc1 [Compound 9, 3-{3-[4-({N-[3-(2,4-dioxo-1,4-dihydro-2H-quinazolin-3-yl)propyl]-N-benzyl}amino)butylamino]propyl}-1H-quinazoline-2,4-dione] | 67(4/6) % | 100(6/6) % | 4.4 ± 0.7 | 39.8 ± 10.3 | 21.4 | 33.3 | – | Relaxation percentage (thoracic aorta of rats): 95.5%
